From US6645982B2, “Crystal forms of 6-[(4-chloro-phenyl)-hydroxy-(3-methyl-3H-imidazol-4-yl)-methyl]-4-(3-ethynyl-phenyl)-1-methyl-1H-quinolin-2-one, 2,3-dihydroxybutanedioate salts and method of production” (Pfizer Inc, priority 2000, dated 2003)

Test: solubility in gastric fluids
Assay type: physicochemical
Details: compared to other salts of the compound of formula I, i.e., HCl

C#Cc1cccc(-c2cc(=O)n(C)c3ccc(C(O)(c4ccc(Cl)cc4)c4cncn4C)cc23)c1.O=C(O)C(O)C(O)C(=O)O (stereo not shown) [6-[(4-chloro-phenyl)-hydroxy-(3-methyl-3H-imidazol-4-yl)-methyl]-4-(3-ethynyl-phenyl)-1-methyl-1H-quinolin-2-one, 2,3-dihydroxybutanedioate (1:1)]
solubility in gastric fluids: improved solubility
